Each structure is given as a SMILES string. Where a name gives a salt, the structure may show the parent alone.

The nature of data set [1]: Water content at 75% relative humidity (Karl-Fisher). In kind it is physicochemical. On the procedure: Samples of anhydrous lercanidipine hydrochloride and lercanidipine hydrochloride hemihydrate were placed in open polyethylene bags in flasks and heated, in the dark, at 60° C. and 75% relative humidity. The samples were checked for hygroscopicity by determination of the water content using the Karl-Fisher method. The samples were tested at 8 and 15 days.
Two additional samples of the anhydrous lercanidipine hydrochloride and lercanidipine hydrochloride hemihydrate were placed in open polyethylene bags in flasks and heated, in the dark, at 40° C. and 75% relative humidity. The samples were tested as described above at 8 and 15 days.

Data set [2] is described as follows: High temperature stress stability at 100° C., HPLC assay. It counts as physicochemical. The note with it: in the light. The method, then:
The two samples, lercanidipine hydrochloride hemihydrate, and anhydrous lercanidipine hydrochloride were heated, in the light, at 100° C. for 48 hours. The samples were tested at the following times; 0 hours, 24 hours, and 48 hours. The purity of the lercanidipine was checked by HPLC analysis under the following conditions:
Column: m-Bondapak C-18 (Waters), particle size […], 300×3.9 mm i.d.

For data set [3], the system named is mouse peritoneal macrophages. Description: Cholesteryl ester hydrolysis in macrophages. The conditions noted are these: AcLDL 50 μg/ml + S-58035 1 μg/ml. In kind it is cell-based. The method, then: These experiments were performed by incubating cells preloaded with [^3 H]cholesterol in the presence of the specific ACAT inhibitor S-58035. The blockage of intracellular reesterification of cholesterol allowed the assessment of the ability of cells to hydrolyze the accumulated cholesterol esters.
For studies involving the quantitation of the hydrolysis of cholesteryl esters in cytoplasmic lipid droplets, cells, prepared according to the procedure in Example 6A, are loaded with cholesteryl esters by exposure for 24 hours to the medium containing 50 μg/ml acetyl LDL. [1,2-^3 H]Cholesterol is included in all loading media at a concentration of 0.5 μCi/ml. After 24 hours loading period, during which time the radiolabeled cholesterol is incorporated and esterified, the cell monolayers are washed and incubated an additional 24 hours in medium containing 0.1% bovine serum albumin to allow the intracellular pools of labelled cholesterol to equilibrate to the same specific activity. To quantitate cholesteryl ester hydrolysis, the loaded cells are incubated for up to 24 hours in Dulbecco's minimum essential medium containing, 0.1% bovine serum albumin, lercanidipines, and the compound S-58035, an inhibitor of acyl-coenzyme A-cholesterol acyltransferase. The inhibition of acyl-coenzyme A-cholesterol acyltransferase prevents the reesterification of any free cholesterol generated by cholesteryl ester hydrolysis and thus allows assessment of the activity of the hydrolase. The hydrolysis of the cholesteryl esters is quantified by determining the decrease of radiolabeled cholesteryl esters (E. H. Harrison et al., J. Lipid. Res. 31: […] with phosphate buffered saline and extracted with hexane:isopropanol (3:2 v/v). The media were extracted with chloroform:methanol (2:1 v/v). After solvent removal, free and esterified cholesterol were separated by TLC (isooctane:diethyl ether:acetic acid, 75:25:2 by volume). Cholesterol mass or radioactivity of the spots were determined by an enzymatic method (Boehringer Mannheim, Germany) (F. Bernini et al., Atherosclerosis 104: 19 (1993)) or by liquid scintillation counting (Lipoluma Lumac, Landgraf, The Netherlands) respectively.

In general, share remaining refers to what is left of the initial amount, in per cent. Regarding `COC(=O)C1=C(C)NC(C)=C(C(=O)OC(C)(C)CN(C)CCC(c2ccccc2)c2ccccc2)C1c1cccc([N+](=O)[O-])c1` (stereo not shown) [Anhydrous, METHYL 1,1-N-TRIMETHYL-N-(3,3-DIPHENYLPROPYL)-2-AMINOETHYL 1,4-DIHYDRO-2,6-DIMETHYL-4-(3-NITROPHENYL) PYRIDINE-3,5-DICARBOXYLATE (LERCANIDIPINE) HYDROCHLORIDE], the Water Content in data set [1] (40° C., 0 days, HYDROCHLORIDE) is 0.28%; in data set [1] (40° C., 8 days, HYDROCHLORIDE) it was 0.3%; in data set [1] (40° C., 15 days, HYDROCHLORIDE) it was 0.32%; in data set [1] (60° C., 0 days, HYDROCHLORIDE), 0.28%; in data set [1] (60° C., 8 days, HYDROCHLORIDE), 0.85%; in data set [1] (60° C., 15 days, HYDROCHLORIDE), 0.77%. Moreover, the “Assay % by HPLC” value in data set [2] (0 hr, HYDROCHLORIDE) is 99.74%. This compound gave an amount remaining at 24 h in data set [2] (solid, 24 hrs) of 99.4%. For the same compound, the share remaining at 48 h in data set [2] (solid, 48 hrs) worked out at 99%.
As for `CCCCCCCCCC[Si](C)(C)CCC(=O)NC(Cc1ccc(C)cc1)c1ccccc1` (stereo not shown) [Example S-58035, reference compound], the “% of cholesteryl ester” value in data set [3] is reported as 15 ± 0.5%.
Take `COC(=O)C1=C(C)NC(C)=C(C(=O)OC(C)(C)CN(C)CCC(c2ccccc2)c2ccccc2)C1c1cccc([N+](=O)[O-])c1` (stereo not shown) [Hemihydrate, Lercanidipine hydrochloride hemihydrate, reference compound]: the Water Content was found to be 1.42% in data set [1] (40° C., 0 days); 3.14% in data set [1] (40° C., 8 days); 3.05% in data set [1] (40° C., 15 days); 1.42% in data set [1] (60° C., 0 days); 4% in data set [1] (60° C., 8 days); 4.04% in data set [1] (60° C., 15 days). The “Assay % by HPLC” value is 99.85% in data set [2] (0 hr); 92.35% in data set [2] (24 hrs, hydrochloride hemihydrate, 1440 min); 90.96% in data set [2] (48 hrs, hydrochloride hemihydrate, 2880 min).

These data come from US5912351A, “Anhydrous 1,4-Dihydropyridines and salts thereof” (Recordati, S.A. Chemical and Pharmaceutical Company, priority 1995, dated 1999).
